Measurements: patent publication EP0726263A2, “Herbicidal (1,3,4)oxadiazoles and thiadiazoles” (American Cyanamid Company, priority 1995, dated 1996)

Experiments:
Assay type in all cases: in vivo
[1] = tested on: Ambrosia artemisifolia; experiment: Herbicidal activity, preemergence test; conditions: pre; sprayed onto soil, 800 g of active material per hectare; evaluated 3 weeks after treatment
Method in brief: (§1)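 Scored visually on a 0-9 scale against untreated sown soil 3 weeks after application. Seeds freshly sown in prepared loam received a soil spray of 800 g/ha active material, applied as a water-diluted acetone solution with 0.4% TRITON X-155 at 900 L/ha.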

[2] = tested on: Glycine max; experiment: Herbicidal activity, preemergence test; conditions: pre; sprayed onto soil, 800 g of active material per hectare; evaluated 3 weeks after treatment
Method in brief: as §1

[3] = tested on: Echinochloa crus-galli; experiment: Herbicidal activity, preemergence test; conditions: pre; sprayed onto soil, 800 g of active material per hectare; evaluated 3 weeks after treatment
Method in brief: as §1

[4] = tested on: Abutilon theophrasti; experiment: Herbicidal activity, preemergence test; conditions: pre; sprayed onto soil, 800 g of active material per hectare; evaluated 3 weeks after treatment
Method in brief: as §1

[5] = tested on: Hordeum vulgare; experiment: Herbicidal activity, preemergence test; conditions: pre; sprayed onto soil, 800 g of active material per hectare; evaluated 3 weeks after treatment
Method in brief: as §1

[6] = tested on: Galium aparine; experiment: Herbicidal activity, preemergence test; conditions: pre; sprayed onto soil, 800 g of active material per hectare; evaluated 3 weeks after treatment
Method in brief: as §1

[7] = tested on: Lamium purpureum; experiment: Herbicidal activity, preemergence test; conditions: pre; sprayed onto soil, 800 g of active material per hectare; evaluated 3 weeks after treatment
Method in brief: as §1

[8] = tested on: Helianthus annuus; experiment: Herbicidal activity, preemergence test; conditions: pre; sprayed onto soil, 800 g of active material per hectare; evaluated 3 weeks after treatment
Method in brief: as §1

[9] = tested on: Zea mays; experiment: Herbicidal activity, preemergence test; conditions: pre; sprayed onto soil, 800 g of active material per hectare; evaluated 3 weeks after treatment
Method in brief: as §1

[10] = tested on: Ipomoea hederacea; experiment: Herbicidal activity, preemergence test; conditions: pre; sprayed onto soil, 800 g of active material per hectare; evaluated 3 weeks after treatment
Method in brief: as §1

[11] = tested on: Stellaria media; experiment: Herbicidal activity, preemergence test; conditions: pre; sprayed onto soil, 800 g of active material per hectare; evaluated 3 weeks after treatment
Method in brief: as §1

[12] = tested on: Gossypium hirsutum; experiment: Herbicidal activity, preemergence test; conditions: pre; sprayed onto soil, 800 g of active material per hectare; evaluated 3 weeks after treatment
Method in brief: as §1

[13] = tested on: Setaria viridis; experiment: Herbicidal activity, preemergence test; conditions: pre; sprayed onto soil, 800 g of active material per hectare; evaluated 3 weeks after treatment
Method in brief: as §1

[14] = tested on: Veronica persica; experiment: Herbicidal activity, preemergence test; conditions: pre; sprayed onto soil, 800 g of active material per hectare; evaluated 3 weeks after treatment
Method in brief: as §1

[15] = tested on: Triticum aestivum; experiment: Herbicidal activity, preemergence test; conditions: pre; sprayed onto soil, 800 g of active material per hectare; evaluated 3 weeks after treatment
Method in brief: as §1

[16] = tested on: Amaranthus retroflexus; experiment: Herbicidal activity, preemergence test; conditions: pre; sprayed onto soil, 800 g of active material per hectare; evaluated 3 weeks after treatment
Method in brief: as §1

[17] = tested on: Viola arvensis; experiment: Herbicidal activity, preemergence test; conditions: pre; sprayed onto soil, 800 g of active material per hectare; evaluated 3 weeks after treatment
Method in brief: as §1

[18] = tested on: Alopecurus myosuroides; experiment: Herbicidal activity, preemergence test; conditions: pre; sprayed onto soil, 800 g of active material per hectare; evaluated 3 weeks after treatment
Method in brief: as §1

[19] = tested on: Ambrosia artemisifolia; experiment: Herbicidal activity, postemergence test; conditions: post; sprayed onto seedling plants, 800 g of active material per hectare; evaluated 2 weeks after treatment
Method in brief: (§2)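 First, test compound in acetone containing 0.4% Triton X-155 is diluted with water. Next, it is sprayed at 800 g/ha (900 L/ha) onto freshly seeded loam (pre) or onto seedlings (post). Finally, plants are scored 0-9 visually after 3 or 2 weeks, respectively.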

[20] = tested on: Glycine max; experiment: Herbicidal activity, postemergence test; conditions: post; sprayed onto seedling plants, 800 g of active material per hectare; evaluated 2 weeks after treatment
Method in brief: as §2

[21] = tested on: Echinochloa crus-galli; experiment: Herbicidal activity, postemergence test; conditions: post; sprayed onto seedling plants, 800 g of active material per hectare; evaluated 2 weeks after treatment
Method in brief: as §2

[22] = tested on: Abutilon theophrasti; experiment: Herbicidal activity, postemergence test; conditions: post; sprayed onto seedling plants, 800 g of active material per hectare; evaluated 2 weeks after treatment
Method in brief: as §2

[23] = tested on: Hordeum vulgare; experiment: Herbicidal activity, postemergence test; conditions: post; sprayed onto seedling plants, 800 g of active material per hectare; evaluated 2 weeks after treatment
Method in brief: as §2

[24] = tested on: Galium aparine; experiment: Herbicidal activity, postemergence test; conditions: post; sprayed onto seedling plants, 800 g of active material per hectare; evaluated 2 weeks after treatment
Method in brief: as §2

[25] = tested on: Lamium purpureum; experiment: Herbicidal activity, postemergence test; conditions: post; sprayed onto seedling plants, 800 g of active material per hectare; evaluated 2 weeks after treatment
Method in brief: as §2

[26] = tested on: Helianthus annuus; experiment: Herbicidal activity, postemergence test; conditions: post; sprayed onto seedling plants, 800 g of active material per hectare; evaluated 2 weeks after treatment
Method in brief: as §2

[27] = tested on: Zea mays; experiment: Herbicidal activity, postemergence test; conditions: post; sprayed onto seedling plants, 800 g of active material per hectare; evaluated 2 weeks after treatment
Method in brief: as §2

[28] = tested on: Ipomoea hederacea; experiment: Herbicidal activity, postemergence test; conditions: post; sprayed onto seedling plants, 800 g of active material per hectare; evaluated 2 weeks after treatment
Method in brief: as §2

[29] = tested on: Stellaria media; experiment: Herbicidal activity, postemergence test; conditions: post; sprayed onto seedling plants, 800 g of active material per hectare; evaluated 2 weeks after treatment
Method in brief: as §2

[30] = tested on: Gossypium hirsutum; experiment: Herbicidal activity, postemergence test; conditions: post; sprayed onto seedling plants, 800 g of active material per hectare; evaluated 2 weeks after treatment
Method in brief: as §2

[31] = tested on: Setaria viridis; experiment: Herbicidal activity, postemergence test; conditions: post; sprayed onto seedling plants, 800 g of active material per hectare; evaluated 2 weeks after treatment
Method in brief: as §2

[32] = tested on: Veronica persica; experiment: Herbicidal activity, postemergence test; conditions: post; sprayed onto seedling plants, 800 g of active material per hectare; evaluated 2 weeks after treatment
Method in brief: as §2

[33] = tested on: Triticum aestivum; experiment: Herbicidal activity, postemergence test; conditions: post; sprayed onto seedling plants, 800 g of active material per hectare; evaluated 2 weeks after treatment
Method in brief: as §2

[34] = tested on: Amaranthus retroflexus; experiment: Herbicidal activity, postemergence test; conditions: post; sprayed onto seedling plants, 800 g of active material per hectare; evaluated 2 weeks after treatment
Method in brief: as §2

[35] = tested on: Viola arvensis; experiment: Herbicidal activity, postemergence test; conditions: post; sprayed onto seedling plants, 800 g of active material per hectare; evaluated 2 weeks after treatment
Method in brief: as §2

[36] = tested on: Alopecurus myosuroides; experiment: Herbicidal activity, postemergence test; conditions: post; sprayed onto seedling plants, 800 g of active material per hectare; evaluated 2 weeks after treatment
Method in brief: as §2

C[C@H](NC(=O)c1nnc(-c2ccccc2)o1)c1ccccc1 [Example 4]
AMBEL control rating (0-9) [1]: 0 (no effect) | GLXMA control rating (0-9) [2]: 0 (no effect) | ECHCG control rating (0-9) [3]: 4 (injury) | ABUTH control rating (0-9) [4]: 1 (trace effect) | HORVW control rating (0-9) [5]: 0 (no effect) | GALAP control rating (0-9) [6]: 0 (no effect) | LAMPU control rating (0-9) [7]: 3 (moderate effect) | HELAN control rating (0-9) [8]: 0 (no effect) | ZEAMX control rating (0-9) [9]: 1 (trace effect) | IPOHE control rating (0-9) [10]: 0 (no effect) | STEME control rating (0-9) [11]: 6 (herbicidal effect) | GOSHI control rating (0-9) [12]: 0 (no effect) | SETVI control rating (0-9) [13]: 4 (injury) | VERPE control rating (0-9) [14]: 6 (herbicidal effect) | TRZAW control rating (0-9) [15]: 0 (no effect) | AMARE control rating (0-9) [16]: 8 (approaching complete kill) | VIOAR control rating (0-9) [17]: 6 (herbicidal effect) | ALOMY control rating (0-9) [18]: 0 (no effect) | AMBEL control rating (0-9) [19]: 9 (complete kill) | GLXMA control rating (0-9) [20]: 8 (approaching complete kill) | ECHCG control rating (0-9) [21]: 5 (definite injury) | ABUTH control rating (0-9) [22]: 9 (complete kill) | HORVW control rating (0-9) [23]: 5 (definite injury) | GALAP control rating (0-9) [24]: 8 (approaching complete kill) | LAMPU control rating (0-9) [25]: 6 (herbicidal effect) | HELAN control rating (0-9) [26]: 9 (complete kill) | ZEAMX control rating (0-9) [27]: 3 (moderate effect) | IPOHE control rating (0-9) [28]: 9 (complete kill) | STEME control rating (0-9) [29]: 9 (complete kill) | GOSHI control rating (0-9) [30]: 9 (complete kill) | SETVI control rating (0-9) [31]: 8 (approaching complete kill) | VERPE control rating (0-9) [32]: 9 (complete kill) | TRZAW control rating (0-9) [33]: 4 (injury) | AMARE control rating (0-9) [34]: 9 (complete kill) | VIOAR control rating (0-9) [35]: 7 (good herbicidal effect) | ALOMY control rating (0-9) [36]: 4 (injury)
